In patent US11319298B2 (Merck Sharp & Dohme Corp., priority 2016, dated 2022):

Molecular target: T1, human M4 muscarinic acetylcholine receptor (Homo sapiens, UniProt P08173)
T1 construct: expressed in transfected cells; host or cells: CHO-K1
T1 sequence (P08173 1-479): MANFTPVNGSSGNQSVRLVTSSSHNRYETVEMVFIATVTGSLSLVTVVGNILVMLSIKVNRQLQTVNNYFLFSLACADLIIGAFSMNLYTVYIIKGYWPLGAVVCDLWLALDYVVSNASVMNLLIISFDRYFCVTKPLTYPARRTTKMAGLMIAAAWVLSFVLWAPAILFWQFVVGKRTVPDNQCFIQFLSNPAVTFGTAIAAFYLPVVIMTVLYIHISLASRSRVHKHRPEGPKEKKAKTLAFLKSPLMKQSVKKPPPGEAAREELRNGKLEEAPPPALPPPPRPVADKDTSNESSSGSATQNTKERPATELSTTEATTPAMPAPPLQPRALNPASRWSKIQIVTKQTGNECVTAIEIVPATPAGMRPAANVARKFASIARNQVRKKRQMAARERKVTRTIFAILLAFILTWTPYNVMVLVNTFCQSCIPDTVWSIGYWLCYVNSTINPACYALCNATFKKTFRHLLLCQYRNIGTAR
Assay: human FLIPR-based M4 PAM assay, CHO-K1 cells stably transfected with human M4 receptor and chimeric G-protein Gαqi5
Assay type: cell-based
Conditions: inflection point (IP) of dose response curve; acetylcholine added at 20% of maximum response; CHO-K1 human M4/Gαqi5, FLIPR Tetra
Method in brief: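 The FLIPR read recorded 4 min after compound was added across a concentration range, then 3.5 min after acetylcholine giving 20% of its maximal response, with an occasional extra EC70 addition. Cells were dye-loaded for about 1 h at 37 °C. Potency is the curve inflection point from a four-parameter logistic fit.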

| Compound | EC50 |
| --- | --- |
| COc1ccc(OC2CCN(c3nc(C)ncc3C)CC2)cc1 [Example 69, 4-(4-(4-methoxyphenoxy)piperidin-1-yl)-2,5-dimethylpyrimidine] | 126 nM |
| COc1ccc(O[C@@H]2CCN(c3nc(C(N)=O)nc(Cl)c3C)C[C@@H]2F)cn1 [Example 222, 4-chloro-6-((3S,4R)-3-fluoro-4-((6-methoxypyridin-3-yl)oxy)piperidin-1-yl)-5-methylpyrimidine-2-carboxamide] | 141 nM |
| COc1ccc(OC2CCN(c3ncnc(-c4cccnc4)c3C)CC2)cn1 [Example 251, 4-(4-((6-methoxypyridin-3-yl)oxy)piperidin-1-yl)-5-methyl-6-(pyridin-3-yl)pyrimidine] | 1440 nM |
| COc1ccc(OC2CCN(c3ncnc(-c4ccc(F)nc4)c3C)CC2)cn1 [Example 246, 4-(6-fluoropyridin-3-yl)-6-(4-((6-methoxypyridin-3-yl)oxy)piperidin-1-yl)-5-methylpyrimidine] | 633 nM |
| COc1ccc(OC2CCN(c3nc(C(=O)N[C@@H]4CCCc5ccccc54)nc(Cl)c3C)CC2)cn1 [Example 223, (R)-4-chloro-6-(4-((6-methoxypyridin-3-yl)oxy)piperidin-1-yl)-5-methyl-N-(1,2,3,4-tetrahydronaphthalen-1-yl)pyrimidine-2-carboxamide] | 3410 nM |
| Cc1nc(Cl)c(C)c(N2CCC(Oc3cccnc3)CC2)n1 [Example 12, 4-chloro-2,5-dimethyl-6-(4-(pyridin-3-yloxy)piperidin-1-yl)pyrimidine] | 292 nM |
| COc1ccc(OC2CCN(c3nc(C4CC4)nc(Cl)c3C)CC2)cc1 [Example 95C, 4-chloro-2-cyclopropyl-6-(4-(4-methoxyphenoxy)piperidin-1-yl)-5-methylpyrimidine] | 846 nM |
| COC1CCN(c2nnc(C(=O)NCc3ccncc3)cc2C)CC1 [Example 7, 6-(4-methoxypiperidin-1-yl)-5-methyl-N-(pyridin-4-ylmethyl)pyridazine-3-carboxamide] | 1240 nM |
| COc1ccc(OC2CCN(c3nnc(C(N)=O)cc3C)CC2)cn1 [Example 127, 6-{4-[(6-methoxypyridin-3-yl)oxy]piperidin-1-yl}-5-methylpyridazine-3-carboxamide] | 114 nM |
| COc1ccc(OC2CCN(c3nnc(C(=O)NCCn4ccnc4)cc3C)CC2)cn1 [Example 162, N-[2-(1H-imidazol-1-yl)ethyl]-6-{4-[(6-methoxypyridin-3-yl)oxy]piperidin-1-yl}-5-methylpyridazine-3-carboxamide] | 306 nM |
| COc1ccc(OC2CCN(c3nnc(-c4nc(C)no4)cc3C)CC2)cn1 [Example 28, 5-(6-(4-((6-methoxypyridin-3-yl)oxy)piperidin-1-yl)-5-methylpyridazin-3-yl)-3-methyl-1,2,4-oxadiazole] | 119 nM |
| COc1ccc(OC2CCN(c3ncnc(N)c3C)CC2)cn1 [Example 89, 6-(4-((6-methoxypyridin-3-yl)oxy)piperidin-1-yl)-5-methylpyrimidin-4-amine] | 1610 nM |
| COc1ccc(OC2CCN(c3nnc(C(=O)NC4CCc5cccnc54)cc3C)CC2)cn1 (centres unmarked) [Example 170, N-(6,7-dihdyro-5H-cyclopenta[b]pyridin-7-yl)-6-{4-[(6-methoxypyridin-3-yl)oxy]piperidin-1-yl}-5-methylpyridazine-3-carboxamide] | 465 nM |
| Cc1c(Cl)nc(CO)nc1N1CCC(Oc2ccc3ncnn3c2)CC1 [Example 4, (4-(4-([1,2,4]triazolo[1,5-a]pyridin-6-yloxy)piperidin-1-yl)-6-chloro-5-methylpyrimidin-2-yl)methanol] | 533 nM |
| Cc1ccc(OC2CCN(c3nc(CO)nc(Cl)c3C)CC2)cc1Cl [Example 3, (4-chloro-6-(4-(3-chloro-4-methylphenoxy)piperidin-1-yl)-5-methylpyrimidin-2-yl)methanol] | 452 nM |
| COc1ccc(OC2CCN(c3nc(S(C)(=O)=O)nc(Cl)c3C)CC2)cc1 [Example 73, 4-chloro-6-(4-(4-methoxyphenoxy)piperidin-1-yl)-5-methyl-2-(methylsulfonyl)pyrimidine] | 141 nM |
| COc1ccc(OC2CCN(c3nnc(C(=O)NC4CCc5ncccc5C4)cc3C)CC2)cn1 (centres unmarked) [Example 163, 6-{4-[(6-methoxypyridin-3-yl)oxy]piperidin-1-yl}-5-methyl-N-(5,6,7,8-tetrahydroquinolin-6-yl)pyridazine-3-carboxamide] | 325 nM |
| Cc1nc2cc(OC3CCN(c4nc(CO)nc(Cl)c4C)CC3)ccc2s1 [Example 44, 4(4-chloro-5-methyl-6-(4-((2-methylbenzo[d]thiazol-5-yl)oxy)piperidin-1-yl)pyrimidin-2-yl)methanol] | 446 nM |
| Cc1c(Cl)nc(CO)nc1N1CCC(Oc2ccc3c(cnn3C)c2)CC1 [Example 31, (4-chloro-5-methyl-6-(4-((1-methyl-1H-indazol-5-yl)oxy)piperidin-1-yl)pyrimidin-2-yl)methanol] | 157 nM |
| Cc1c(-c2ccc3c(c2)OCCO3)ncnc1N1CCC(Oc2cccc(C#N)c2)CC1 [Example 250, 3-((1-(6-(2,3-dihydrobenzo[b][1,4]dioxin-6-yl)-5-methylpyrimidin-4-yl)piperidin-4-yl)oxy)benzonitrile] | 1130 nM |
| Cc1ncc(C)c(N2CCC(Oc3ccc4cn[nH]c4c3)CC2)n1 [Example 80, 6-((1-(2,5-dimethylpyrimidin-4-yl)piperidin-4-yl)oxy)-1H-indazole] | 257 nM |
| COc1ccc(OC2CCN(c3nc(C)nc(Cl)c3C)CC2)cn1 [Example 1, 4-Chloro-6-(4-((6-methoxypyridin-3-yl)oxy)piperidin-1-yl)-2,5-dimethylpyrimidine] | 191 nM |
| Cc1cc(C(=O)NCc2ccncc2)nnc1N1CCC(Oc2ccc3c(c2)C(=O)N(C)C3)CC1 [Example 135, 5-methyl-6-{4-[(2-methyl-3-oxo-2,3-dihydro-1H-isoindol-5-yl)oxy]piperidin-1-yl}-N-(pyridin-4-ylmethyl)pyridazine-3-carboxamide] | 158 nM |

Compounds with a lower EC50, results first:

| EC50 | Compound |
| --- | --- |
| 102 nM | COc1ccc(O[C@@H]2CCN(c3nnc(C(=O)NCc4ccncc4)cc3C)C[C@@H]2F)cn1 [Example 125, 6-{(3S,4R)-3-fluoro-4-[(6-methoxypyridin-3-yl)oxy]piperidin-1-yl}-5-methyl-N-(pyridin-4-ylmethyl)pyridazine-3-carboxamide] |
| 73 nM | COc1ccc(OC2CCN(c3nnc(C#N)cc3C)CC2)cn1 [Example 258, 6-(4-((6-Methoxypyridin-3-yl)oxy)piperidin-1-yl)-5-methylpyridazine-3-carbonitrile] |
| 20 nM | Cc1c(Cl)nc(CO)nc1N1CC[C@@H](Oc2ccc3[nH]ncc3c2)[C@@H](F)C1 [Example 90, (4-((3S,4R)-4-((1H-indazol-5-yl)oxy)-3-fluoropiperidin-1-yl)-6-chloro-5-methylpyrimidin-2-yl)methanol] |
| 18 nM | Cc1cc(C(=O)NCc2ccncc2)nnc1N1CCC(Oc2ccc3c(c2)OCCO3)CC1 [Example 108, 6-[4-(2,3-dihydro-1,4-benzodioxin-6-yloxy)piperidin-1-yl]-5-methyl-N-(pyridin-4-ylmethyl)pyridazine-3-carboxamide] |
| 79 nM | COc1ccc(OC2CCN(c3nnc(C(=O)NCc4ccncc4)cc3C)CC2)cn1 [Example 116, 6-{4-[(6-methoxypyridin-3-yl)oxy]piperidin-1-yl}-5-methyl-N-(pyridin-4-ylmethyl)pyridazine-3-carboxamide] |
| 27 nM | Cc1c(Cl)nc(CO)nc1N1CCC(Oc2ccc3c(c2)C(=O)CO3)CC1 [Example 91, 5-((1-(6-chloro-2-(hydroxymethyl)-5-methylpyrimidin-4-yl)piperidin-4-yl)oxy)benzofuran-3(2H)-one] |
| 99 nM | COc1ccc(OC2CCN(c3nnc(C(=O)NCc4ccncc4C)cc3C)CC2)cn1 [Example 121, 6-{4-[(6-methoxypyridin-3-yl)oxy]piperidin-1-yl}-5-methyl-N-[(3-methylpyridin-4-yl)methyl]pyridazine-3-carboxamide] |
| 95 nM | COc1ccc(OC2CCN(c3nnc(C(=O)NCc4ccn[nH]4)cc3C)CC2)cn1 [Example 119, 6-{4-[(6-methoxypyridin-3-yl)oxy]piperidin-1-yl}-5-methyl-N-(1H-pyrazol-5-ylmethyl)pyridazine-3-carboxamide] |
| 62 nM | COc1ccc(OC2CCN(c3nc(C(N)=O)nc(Br)c3C)CC2)cn1 [Example 225A, 4-bromo-6-(4-((6-methoxypyridin-3-yl)oxy)piperidin-1-yl)-5-methylpyrimidine-2-carboxamide] |
| 59 nM | Cc1nc(Cl)c(C)c(N2CCC(Oc3cccc(C#N)c3)CC2)n1 [Example 55, 3-((1-(6-chloro-2,5-dimethylpyrimidin-4-yl)piperidin-4-yl)oxy)benzonitrile] |
| 86 nM | COc1ccc(OC2CCN(c3nnc(C(=O)NCc4cnn[nH]4)cc3C)CC2)cn1 [Example 118, 6-{4-[(6-methoxypyridin-3-yl)oxy]piperidin-1-yl}-5-methyl-N-(1H-1,2,3-triazol-5-ylmethyl)pyridazine-3-carboxamide] |
| 110 nM | COc1ccc(O[C@@H]2CCN(c3ncnc(Cl)c3C)C[C@@H]2F)cc1 (relative stereo) [Example 13, 4-chloro-6-((cis)-3-fluoro-4-(4-methoxyphenoxy)piperidin-1-yl)-5-methylpyrimidine] |
